This is an account of results in patent US4789478A, “Conversion of inorganic ions to metal sulfides by microorganisms” (priority 1987, dated 1988).

The subject of this assay is Desulfomonas and Citrobacter freundii. The assay is described as follows: Effect of sulfate addition on sulfate-reducing activity of soil samples (Table 4). How it is done: Soil samples are treated with a culture of Desulfomonas (10^8 cells/mL) and Citrobacter freundii (10^4 cells/mL) at 30° C., with and without added sulfate. Sulfate, if added, is a 1:1 mixture by weight of ferric ammonium sulfate and magnesium sulfate. Sulfate-reducing activity is indicated by formation of black precipitate in the soil sample within 24 h after mixing the cultures with soil samples.

Turning to Sulfate, the “sulfate-reducing activity of the mixed culture (in words)” value (100 ppm of sulfate) is “greatly improves sulfate-reducing activity of the mixed culture”. In addition, the “sulfate reduction (in words)” value (200 ppm of sulfate) is “permit reduction in all cases”.
